Each structure is given as a SMILES string.

Assay [1] addresses T1, mGAT1 (Mus musculus, UniProt P31648). Description: cell-based. More on the design: gene Slc6a1.
Description: (§1) Those were designated CHO/mGAT1, CHO/mGAT2, CHO/mGAT3 and CHO/mBGT1. […] For uptake assays in cell lines stably expressing mouse GATs, CHO cells were transfected with cDNA using FuGENE6 transfection reagent according to the manufacturer’s directions, and subsequently cultured in the medium containing G418 to select positive clones.
Assay [2] concerns the target T2, mGAT2 (Mus musculus, UniProt P31649).
T2 sequence (P31649 1-602): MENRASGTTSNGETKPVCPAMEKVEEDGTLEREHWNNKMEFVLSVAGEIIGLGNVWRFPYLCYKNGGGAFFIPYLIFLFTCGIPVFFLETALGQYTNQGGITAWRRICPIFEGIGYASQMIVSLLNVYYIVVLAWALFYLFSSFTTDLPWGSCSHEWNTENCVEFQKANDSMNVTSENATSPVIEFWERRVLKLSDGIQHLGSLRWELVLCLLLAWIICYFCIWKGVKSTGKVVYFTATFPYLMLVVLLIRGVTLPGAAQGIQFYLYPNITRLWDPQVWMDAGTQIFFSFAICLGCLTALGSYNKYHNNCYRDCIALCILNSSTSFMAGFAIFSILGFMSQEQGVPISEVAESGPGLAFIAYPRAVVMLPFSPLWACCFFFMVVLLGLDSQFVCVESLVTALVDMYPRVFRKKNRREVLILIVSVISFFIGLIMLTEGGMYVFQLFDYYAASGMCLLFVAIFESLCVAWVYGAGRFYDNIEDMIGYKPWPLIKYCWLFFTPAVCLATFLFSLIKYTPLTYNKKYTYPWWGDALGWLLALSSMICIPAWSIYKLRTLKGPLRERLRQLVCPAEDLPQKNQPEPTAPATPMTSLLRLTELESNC
Description: cell-based. Also on record: gene Slc6a13.
Description: as §1

In assay [3] the target is T3, mGAT3 (Mus musculus, UniProt P31650).
T3 sequence (P31650 1-627): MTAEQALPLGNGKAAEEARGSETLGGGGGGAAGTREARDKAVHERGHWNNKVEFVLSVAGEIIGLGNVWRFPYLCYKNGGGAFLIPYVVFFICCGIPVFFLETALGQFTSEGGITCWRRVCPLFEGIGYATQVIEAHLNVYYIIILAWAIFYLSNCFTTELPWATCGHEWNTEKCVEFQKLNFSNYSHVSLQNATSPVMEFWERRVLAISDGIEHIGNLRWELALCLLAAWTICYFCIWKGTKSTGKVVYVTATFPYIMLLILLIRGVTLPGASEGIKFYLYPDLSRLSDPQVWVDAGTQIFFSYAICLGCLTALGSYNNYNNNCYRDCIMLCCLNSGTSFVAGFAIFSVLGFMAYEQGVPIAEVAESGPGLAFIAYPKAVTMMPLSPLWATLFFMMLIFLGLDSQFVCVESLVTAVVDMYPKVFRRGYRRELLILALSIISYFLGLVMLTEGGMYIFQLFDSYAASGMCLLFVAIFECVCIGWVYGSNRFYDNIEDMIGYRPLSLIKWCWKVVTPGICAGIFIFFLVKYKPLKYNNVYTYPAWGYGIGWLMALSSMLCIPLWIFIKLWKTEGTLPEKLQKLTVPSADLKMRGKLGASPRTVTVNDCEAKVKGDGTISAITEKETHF
Nature of the assay: cell-based. Also on record: gene Slc6a11.
Description: as §1

The next assay addresses T4, rSERT (Rattus norvegicus, UniProt P31652).
T4 construct: gene Slc6a4; previously cloned cDNA; no tag mentioned
Description: [3H]5-HT uptake inhibition, stable CHO cells. It is filed as cell-based.

Assay [4] has as its target T1, mGAT1. Description: [3H]GABA uptake inhibition, stable CHO cells. More on the design: gene Slc6a1; full-length ORF in pcDNA3; no tag mentioned. It is filed as cell-based.
Assay [5] deals with T2, mGAT2. Nature of the assay: [3H]GABA uptake inhibition, stable CHO cells. More on the design: gene Slc6a13; RIKEN FANTOM cDNA in pcDNA3; no tag mentioned. It is filed as cell-based.
Assay [6] addresses T3, mGAT3. Nature of the assay: [3H]GABA uptake inhibition, stable CHO cells. It is filed as cell-based. Also on record: gene Slc6a11; RIKEN FANTOM cDNA in pcDNA3; no tag mentioned.

T4 sequence (P31652 whole entry): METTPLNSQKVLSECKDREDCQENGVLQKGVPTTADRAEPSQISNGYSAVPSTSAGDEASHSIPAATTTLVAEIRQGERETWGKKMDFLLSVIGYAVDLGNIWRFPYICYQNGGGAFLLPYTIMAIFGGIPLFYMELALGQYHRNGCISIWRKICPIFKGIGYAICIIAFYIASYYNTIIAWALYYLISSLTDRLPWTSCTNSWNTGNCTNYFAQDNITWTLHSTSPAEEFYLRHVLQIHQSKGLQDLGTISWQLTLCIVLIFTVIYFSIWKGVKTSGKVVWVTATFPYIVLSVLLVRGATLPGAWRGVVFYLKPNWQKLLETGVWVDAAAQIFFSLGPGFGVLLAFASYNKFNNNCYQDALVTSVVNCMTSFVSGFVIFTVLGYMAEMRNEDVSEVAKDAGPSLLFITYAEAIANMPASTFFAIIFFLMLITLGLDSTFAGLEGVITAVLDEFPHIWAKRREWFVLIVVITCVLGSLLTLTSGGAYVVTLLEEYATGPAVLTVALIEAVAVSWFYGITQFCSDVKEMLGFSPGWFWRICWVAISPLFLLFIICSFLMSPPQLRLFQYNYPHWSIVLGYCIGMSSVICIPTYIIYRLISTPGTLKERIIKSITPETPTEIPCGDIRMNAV

Turning to `NCCC(=O)O` [β-Alanine], the IC50 (as a rule, the concentration that gives 50% inhibition) is > 300 µM against mGAT1 [1], 25 µM against mGAT2 [2] and 18 µM against mGAT3 [3].
For `CC(CN(C)C)CN1c2ccccc2CCc2ccccc21` (stereo not shown) [Trimipramine], the IC50 amounted to 5.89 µM on rSERT, 181 ± 72.9 µM at mGAT1 [4], 85.6 µM against mGAT2 [5] and 64.6 µM against mGAT3 [6].
Take `CNCCCN1c2ccccc2CCc2ccccc21` [Desipramine]: the IC50 against mGAT1 [4] is 268 ± 36.7 µM; against mGAT2 [5] it was 123 µM; on mGAT3 [6] it was 80.3 µM.
In the case of `CNCCC=C1c2ccccc2CCc2ccccc21` [Nortriptyline], the IC50 on mGAT1 [4] amounted to 136 ± 21.9 µM; on mGAT2 [5] it was 87.1 µM; on mGAT3 [6] it was 74.1 µM.
For `CNCCCC1c2ccccc2C=Cc2ccccc21` [Protriptyline], the IC50 turned out to be 167 ± 22.1 µM against mGAT1 [4], 77.2 µM on mGAT2 [5] and 113 µM against mGAT3 [6].
For `CN(C)CCC=C1c2ccccc2CCc2ccccc21` [Amitriptyline], the IC50 on mGAT1 [4] was found to be 101 ± 11.7 µM; against mGAT2 [5], 45.8 µM; against mGAT3 [6], 61.5 µM.
`C[N+](C)(C)CC(=O)O` [Betaine]: the IC50 at mGAT1 [1], against mGAT2 [2] and against mGAT3 [3] was > 10000 µM each time.
On to `CN(C)CCCN1c2ccccc2CCc2ccccc21` [Imipramine], for which the IC50 on mGAT1 [4] was 223 ± 58.5 µM; at mGAT2 [5], 106 µM; at mGAT3 [6], 108 µM.

(Values after publication PMC3317675 (International Journal of Molecular Sciences, 2012).)
